Test results: US20140088187A1, “ANDROGEN RECEPTOR INHIBITORS AND METHODS OF USE THEREOF” (BETH ISRAEL DEACONESS MEDICAL CENTER, priority 2010, published 2014)

Legend:
VCaP xenograft tumors = test: Post-castration relapsed VCaP xenograft tumors (model of CRPC); format: in vivo
Protocol: FIG. 17. Compound A89 maintains activity in vivo and is efficacious in a CRPC xenograft model. (a) Morphological changes in seminal vesicles of intact adult male mice following treatment with DMSO vehicle, Bic (0.5 mg/day) or A89 (mg/day as indicated) for 7 days. (b) H&E stained cross-sections of prostate ductal epithelium from above mice treated with DMSO, Bic, or A89 (10 mg/day). (c) AR and Ki-67 staining in pre- and post-castration relapsed VCaP xenograft tumor sections following treatment with A89 (5 mg/day) or Bic (0.5 mg/day) for 7 days. (d) mRNA levels of AR and AR-target genes in post-castration relapsed VCaP xenograft tumors following treatment with A89 (5 mg/day) for 7 days. Error bars represent S.E.M.
To evaluate the activity of the chemotype A compounds in vivo we first treated adult male mice with compound A89 in a dose ranging experiment from 0.5 mg/day to 10 mg/day via intraperitoneal injection for 7 days. […] We next evaluated A89 in VCaP xenograft tumors that had relapsed following an initial response to castration, which is a model of CRPC.

[1] = target: T1, AR ΔH12 (M886X variant AR) (Homo sapiens, UniProt P10275); test: Mifepristone-stimulated VP16-NCoRc recruitment reporter assay in COS7 cells, AR ΔH12; format: cell-based
T1 construct: expressed in transfected cells; host or cells: COS7
T1 sequence (P10275 1-886 limits assumed): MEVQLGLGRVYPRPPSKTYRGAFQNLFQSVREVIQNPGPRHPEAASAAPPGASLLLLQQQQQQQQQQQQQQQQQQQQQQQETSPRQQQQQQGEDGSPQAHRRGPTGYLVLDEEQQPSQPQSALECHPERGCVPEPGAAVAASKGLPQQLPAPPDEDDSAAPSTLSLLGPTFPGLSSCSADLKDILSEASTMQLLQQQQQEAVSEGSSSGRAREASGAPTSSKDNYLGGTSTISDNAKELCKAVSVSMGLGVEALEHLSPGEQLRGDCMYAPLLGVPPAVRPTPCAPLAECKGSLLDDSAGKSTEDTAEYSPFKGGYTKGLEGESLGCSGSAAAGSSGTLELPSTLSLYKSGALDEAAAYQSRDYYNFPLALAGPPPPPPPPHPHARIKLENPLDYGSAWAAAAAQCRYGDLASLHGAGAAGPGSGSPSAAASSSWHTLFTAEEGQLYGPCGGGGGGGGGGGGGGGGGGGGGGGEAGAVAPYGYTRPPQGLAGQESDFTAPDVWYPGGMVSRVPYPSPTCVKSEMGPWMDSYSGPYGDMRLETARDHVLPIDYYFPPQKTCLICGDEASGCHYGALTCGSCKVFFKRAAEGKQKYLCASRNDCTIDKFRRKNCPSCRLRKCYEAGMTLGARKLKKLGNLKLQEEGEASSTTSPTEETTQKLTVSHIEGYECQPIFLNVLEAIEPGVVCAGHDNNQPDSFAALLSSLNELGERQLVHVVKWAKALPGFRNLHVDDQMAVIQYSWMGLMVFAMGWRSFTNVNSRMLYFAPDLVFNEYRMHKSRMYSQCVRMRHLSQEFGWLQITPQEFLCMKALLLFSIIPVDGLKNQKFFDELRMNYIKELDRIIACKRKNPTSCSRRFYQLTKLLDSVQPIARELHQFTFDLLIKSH
Description: (§1) The ERα antagonist fulvestrant (Faslodex) represents a novel class of estrogen receptor downregulators that appear to mediate ERα degradation by specifically repositioning helix 12. To assess the role of helix 12 in chemotype A-mediated AR degradation, we first determined if helix 12 is required for A89 binding. As this helix is required for AR agonist activity, we could not directly measure competitive antagonist activity on a truncated AR lacking helix 12.

AR ΔH12 = target: T2, AR ΔH12 (Homo sapiens, UniProt P10275); test: AR expression levels in transiently transfected COS7 cells, AR ΔH12; format: cell-based; conditions: 24 hours
T2 construct: expressed in transfected cells; host or cells: COS7
T2 sequence (P10275 1-886 limits assumed): T1 sequence (P10275 1-886 limits assumed)

AR WT = target: T3, AR WT (Homo sapiens, UniProt P10275); test: Mifepristone-stimulated VP16-NCoRc recruitment reporter assay in COS7 cells, AR WT; format: cell-based
T3 construct: The AR WT construct expresses full-length human AR under cmv promoter control; expressed in transfected cells; host or cells: COS7
T3 sequence (P10275 1-920): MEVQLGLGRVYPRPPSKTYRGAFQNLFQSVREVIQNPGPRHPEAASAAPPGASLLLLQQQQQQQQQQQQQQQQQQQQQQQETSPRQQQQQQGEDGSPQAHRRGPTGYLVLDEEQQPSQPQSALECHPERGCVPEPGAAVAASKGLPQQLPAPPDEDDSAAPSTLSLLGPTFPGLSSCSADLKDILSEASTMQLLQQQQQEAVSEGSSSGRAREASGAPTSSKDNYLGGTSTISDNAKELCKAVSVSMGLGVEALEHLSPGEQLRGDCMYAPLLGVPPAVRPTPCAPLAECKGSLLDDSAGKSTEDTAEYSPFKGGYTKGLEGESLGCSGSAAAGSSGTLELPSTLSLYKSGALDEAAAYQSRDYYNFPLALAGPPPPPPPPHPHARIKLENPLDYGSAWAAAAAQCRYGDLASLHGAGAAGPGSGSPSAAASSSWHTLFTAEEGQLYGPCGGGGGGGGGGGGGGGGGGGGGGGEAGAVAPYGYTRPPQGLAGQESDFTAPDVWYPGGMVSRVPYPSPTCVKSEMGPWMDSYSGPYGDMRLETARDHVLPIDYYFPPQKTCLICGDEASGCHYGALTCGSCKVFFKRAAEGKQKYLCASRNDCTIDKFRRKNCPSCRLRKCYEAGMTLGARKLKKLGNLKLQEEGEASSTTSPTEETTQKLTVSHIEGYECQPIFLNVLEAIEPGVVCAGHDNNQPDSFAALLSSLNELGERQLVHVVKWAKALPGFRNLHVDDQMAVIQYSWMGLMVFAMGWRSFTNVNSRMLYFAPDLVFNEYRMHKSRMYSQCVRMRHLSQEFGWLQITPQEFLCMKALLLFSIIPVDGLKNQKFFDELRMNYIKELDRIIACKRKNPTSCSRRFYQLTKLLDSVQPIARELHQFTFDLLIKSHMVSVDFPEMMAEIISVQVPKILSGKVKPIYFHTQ
Description: as §1

[2] = Mif 100 nM, A89 50 μM, 24 hours

expression of androgen regulated genes (TMPRSS2, ERG, PSA mRNA) (VCaP xenograft tumors; biopsies pre- and post treatment, A89 5 mg/day for 7 days): significant decrease
mifepristone-mediated VP16-NCoRc recruitment ([1]; A89 50 μM with Mif 100 nM): suppressed
VP16-NCoRc recruitment (interaction with AR) [1, 2]: did not stimulate
AR ΔH12 protein levels (AR ΔH12): not clearly decreased
mifepristone-mediated VP16-NCoRc recruitment (AR WT; A89 50 μM with Mif 100 nM): suppressed
VP16-NCoRc recruitment (interaction with AR) (AR WT; [2]): did not stimulate
Compound: CCOc1cc(F)c(S(=O)(=O)NCc2ccc3c(c2)OCO3)cc1F [Compound A89, N-(1,3-benzodioxol-5-ylmethyl)-4-ethoxy-2,5-difluorobenzenesulfonamide]
tumor cell proliferation (Ki-67 staining) (VCaP xenograft tumors; A89 5 mg/day for 7 days): decreased tumor cell proliferation
nuclear AR expression / staining in tumor (VCaP xenograft tumors; A89 5 mg/day or Bic 0.5 mg/day for 7 days): substantially decreased
